Source: PMC7973766, “Characterization of zebrafish GABAA receptor subunits” (Scientific Reports, 2021)

Legend:
Type in all cases: cell-based
[1] = target: T1, zebrafish β3 homopentameric GABAA receptor (Danio rerio, UniProt A0A0R4ILP2); assay: two-electrode voltage clamp, Xenopus oocytes, etomidate-evoked current
T1 construct: gene gabrb3; homopentamer
T1 sequence (A0A0R4ILP2 26-498): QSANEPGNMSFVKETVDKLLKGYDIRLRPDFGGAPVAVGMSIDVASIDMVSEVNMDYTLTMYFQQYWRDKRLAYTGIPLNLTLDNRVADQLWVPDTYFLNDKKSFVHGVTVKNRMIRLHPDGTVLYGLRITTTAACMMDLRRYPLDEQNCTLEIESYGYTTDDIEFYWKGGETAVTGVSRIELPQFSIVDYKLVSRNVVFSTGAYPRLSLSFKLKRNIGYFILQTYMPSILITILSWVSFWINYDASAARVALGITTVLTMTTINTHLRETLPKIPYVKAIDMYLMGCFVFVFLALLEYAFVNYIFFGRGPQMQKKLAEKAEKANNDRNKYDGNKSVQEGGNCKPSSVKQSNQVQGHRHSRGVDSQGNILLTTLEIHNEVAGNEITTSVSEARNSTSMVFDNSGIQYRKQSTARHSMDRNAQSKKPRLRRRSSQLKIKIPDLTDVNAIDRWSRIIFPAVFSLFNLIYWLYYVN

[2] = target: T2, zebrafish β1 homopentameric GABAA receptor (Danio rerio, UniProt F1QPW7); assay: two-electrode voltage clamp, Xenopus oocytes, GABA-evoked current; details: agonist at 10 mM only; -50 mV, pH 7.5
T2 construct: gene gabrb1; homopentamer
T2 sequence (F1QPW7 29-484): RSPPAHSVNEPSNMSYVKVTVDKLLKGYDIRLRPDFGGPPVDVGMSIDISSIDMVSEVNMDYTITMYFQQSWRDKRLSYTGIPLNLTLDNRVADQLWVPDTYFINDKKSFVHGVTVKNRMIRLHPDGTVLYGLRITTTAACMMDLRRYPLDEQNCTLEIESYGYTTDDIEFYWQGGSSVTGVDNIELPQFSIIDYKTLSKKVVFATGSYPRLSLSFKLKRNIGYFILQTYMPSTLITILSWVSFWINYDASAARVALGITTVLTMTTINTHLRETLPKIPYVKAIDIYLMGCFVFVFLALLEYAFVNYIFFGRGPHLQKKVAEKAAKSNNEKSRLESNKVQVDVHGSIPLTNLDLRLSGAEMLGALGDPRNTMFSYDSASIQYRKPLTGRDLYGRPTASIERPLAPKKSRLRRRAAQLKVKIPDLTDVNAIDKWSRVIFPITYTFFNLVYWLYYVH

[3] = target: T1, zebrafish β3 homopentameric GABAA receptor; assay: as above; details: agonist at 10 mM only; -50 mV, pH 7.5
[4] = target: T3, zebrafish β4 homopentameric GABAA receptor (Danio rerio, UniProt A0A2R8QJR5); assay: as above; details: agonist at 10 mM only; -50 mV, pH 7.5
T3 construct: gene gabrb4; homopentamer
T3 sequence (A0A2R8QJR5 26-482): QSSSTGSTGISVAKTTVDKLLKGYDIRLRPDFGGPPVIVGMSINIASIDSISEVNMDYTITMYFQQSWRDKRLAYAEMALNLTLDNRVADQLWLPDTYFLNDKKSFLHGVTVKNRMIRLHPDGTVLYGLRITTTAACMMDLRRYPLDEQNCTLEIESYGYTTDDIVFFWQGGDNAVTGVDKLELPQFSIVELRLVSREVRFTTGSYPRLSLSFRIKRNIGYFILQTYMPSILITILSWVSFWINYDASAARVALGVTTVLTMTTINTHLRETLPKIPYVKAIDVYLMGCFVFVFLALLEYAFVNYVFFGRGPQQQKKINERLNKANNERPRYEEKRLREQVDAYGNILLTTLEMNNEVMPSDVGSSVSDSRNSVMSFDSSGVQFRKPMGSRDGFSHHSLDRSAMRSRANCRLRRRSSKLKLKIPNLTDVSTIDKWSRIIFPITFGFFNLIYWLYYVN

Row | Structure (SMILES) | EC50 [1] | two-electrode voltage clamp, Xenopus oocytes, GABA-evoked current [2] | two-electrode voltage clamp, Xenopus oocytes, GABA-evoked current [3] | two-electrode voltage clamp, Xenopus oocytes, GABA-evoked current [4]
1 | CCOC(=O)c1cncn1[C@H](C)c1ccccc1 [etomidate] | 30.3 ± 5.7 µM |  |  | 
2 | NCCCC(=O)O [GABA] |  | either single β subunit yielded small currents | either single β subunit yielded small currents | either single β subunit yielded small currents
